System: bladder (detrusor) contractility of BoNT treated rats
Details: rat, in vivo

**Q.** Which amplitude of contraction does the source give for `CN(C)C(=O)Oc1cccc([N+](C)(C)C)c1` [neostigmine] here?
**A.** The amplitude of contraction was “raised”.

**Q.** What about the baseline pressure of the same compound?
**A.** Its baseline pressure is “without affecting baseline pressure”.

**Q.** What about the contractility of the same compound?
**A.** Its contractility is “improves contractility”.

**Q.** And the duration of contraction?
**A.** Its duration of contraction is “significant increase”.

**Q.** And the “duration of voiding contraction” value?
**A.** The value was “increase”.

**Q.** What about the “interval between bladder contractions” value of the same compound?
**A.** The value was “decrease”.

Reference: patent US20150030667A1, “COMPOSITIONS AND METHODS FOR TREATING U[…]” (priority 2013, published 2015)
